*1 amine or outer side, *2 acyl side, *3 side chain or, on linkers, in order; H or OH if unused. Where a SMILES comes first, the peptide text is derived from it. Side-chain parts run from the residue outwards. [ ]: non-standard residue; d: D form. The star is where a group is joined. Trp(5-OH) = N[C@@H](Cc1c[nH]c2ccc(O)cc12)C(=O)O; Heptadecanoyl = CCCCCCCCCCCCCCCCC(=O)*; γGlu = O=C(O)[C@H](CCC(=O)[*:2])N[*:1]; Pentadecanoyl = CCCCCCCCCCCCCCC(=O)*; Stearoyl = CCCCCCCCCCCCCCCCCC(=O)*; Palmitoyl = CCCCCCCCCCCCCCCC(=O)*; αMeK = C[C@](N)(CCCCN)C(=O)O; Lauroyl = CCCCCCCCCCCC(=O)*; Nle = CCCC[C@H](N)C(=O)O; AEEA = NCCOCCOCC(=O)O; Aib = CC(C)(N)C(=O)O
Target: T1, RXFP1 (Homo sapiens, UniProt Q9HBX9)
T1 construct: OVCAR5 cells expressing endogenous RXFP1; endogenous in cells; host or cells: OVCAR5 cells
T1 sequence (Q9HBX9 1-757): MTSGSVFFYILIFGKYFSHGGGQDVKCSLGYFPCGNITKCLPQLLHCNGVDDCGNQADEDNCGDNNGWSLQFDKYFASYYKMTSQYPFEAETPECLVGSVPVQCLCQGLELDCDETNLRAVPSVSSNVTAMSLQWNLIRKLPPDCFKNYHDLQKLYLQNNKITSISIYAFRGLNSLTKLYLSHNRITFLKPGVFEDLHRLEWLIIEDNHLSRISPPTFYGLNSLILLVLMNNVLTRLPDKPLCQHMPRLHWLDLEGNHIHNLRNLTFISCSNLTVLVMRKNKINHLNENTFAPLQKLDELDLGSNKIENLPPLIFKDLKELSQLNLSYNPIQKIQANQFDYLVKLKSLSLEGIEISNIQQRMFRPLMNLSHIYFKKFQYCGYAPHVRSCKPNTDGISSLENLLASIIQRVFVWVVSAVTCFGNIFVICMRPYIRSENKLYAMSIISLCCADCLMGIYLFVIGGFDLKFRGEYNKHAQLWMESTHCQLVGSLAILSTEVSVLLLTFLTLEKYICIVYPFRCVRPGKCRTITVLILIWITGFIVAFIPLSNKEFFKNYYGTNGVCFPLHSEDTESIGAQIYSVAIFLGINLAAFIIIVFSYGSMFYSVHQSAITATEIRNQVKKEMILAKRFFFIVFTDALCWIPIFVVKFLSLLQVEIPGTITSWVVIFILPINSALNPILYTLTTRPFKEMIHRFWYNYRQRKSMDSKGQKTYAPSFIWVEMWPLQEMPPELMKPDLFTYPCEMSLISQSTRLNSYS
Test: OVCAR5 cAMP assay (HTRF), RXFP1 agonist activity
Format: cell-based
Details: for EC50: OVCAR5 cells, cAMP HTRF, read-out: EC50 (nM), OVCAR 5 cells (cAMP); for Emax: OVCAR-5, maximal cAMP relative to H2-relaxin maximum (100%), read-out: EMax, OVCAR 5 cells (cAMP)
Method in brief: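 cAMP accumulation readout: after 1 mM IBMX for 40 min, endogenous-RXFP1 OVCAR5 cells got rising peptide concentrations without FCS, 30 min, 37° C, then lysis with HTRF cAMP reagents. Nonlinear regression gave EC50; Emax expressed relative to H2-relaxin maximum, same occasion.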

| SMILES | EC50 [nM] | Emax [%] |
| --- | --- | --- |
| CCCCCCCCCCCCCCCC(=O)N[C@@H](CCC(=O)N[C@@H](CCC(=O)N[C@@H](CCC(=O)NCCOCCOCC(=O)NCCOCCOCC(=O)NCCOCCOCC(=O)NCCOCCOCC(=O)NCCCC[C@H](NC(=O)[C@H](CCCCNC(C)=O)NC(=O)[C@H](CCCCN)NC(=O)[C@H](CCCNC(=N)N)NC(=O)C(C)(C)NC(=O)[C@H](CO)NC(=O)[C@H](Cc1ccccc1)NC(=O)[C@@H](NC(=O)[C@H](CO)NC(=O)[C@H](CCCC)NC(=O)CNC(=O)[C@H](CCC(=O)O)NC(=O)C(C)(C)NC(=O)C(C)(C)NC(=O)[C@@H](NC(=O)[C@H](CCCCNC(C)=O)NC(=O)[C@H](C)NC(=O)[C@H](CCCNC(=N)N)NC(=O)[C@@H](NC(=O)[C@H](CCCCN)NC(=O)[C@H](CCC(=O)O)NC(=O)[C@H](CCCNC(=N)N)NC(=O)CNC(=O)[C@H](CCC(=O)O)NC(=O)[C@H](CC(C)C)NC(C)=O)C(C)C)[C@@H](C)CC)[C@@H](C)O)C(N)=O)C(=O)O)C(=O)O)C(=O)O [compound 153] (Ac-LEGREKVRAK(Ac)I[Aib][Aib]EG[Nle]STFS[Aib]RKK(Ac)K([AEEA-AEEA-AEEA-AEEA-γGlu-γGlu-γGlu-Palmitoyl])-NH2) | 0.26 | 89 |
| CCCCCCCCCCCCCCCCCC(=O)N[C@@H](CCC(=O)N[C@@H](CCC(=O)N[C@@H](CCC(=O)NCCOCCOCC(=O)NCCOCCOCC(=O)NCCOCCOCC(=O)NCCCC[C@H](NC(=O)[C@H](CCCCNC(C)=O)NC(=O)[C@H](C)NC(=O)[C@H](C)NC(=O)C(C)(C)NC(=O)[C@H](CO)NC(=O)[C@H](Cc1c[nH]c2ccccc12)NC(=O)[C@@H](NC(=O)[C@H](CO)NC(=O)[C@H](CCCC)NC(=O)CNC(=O)[C@H](CCC(=O)O)NC(=O)C(C)(C)NC(=O)C(C)(C)NC(=O)[C@@H](NC(=O)[C@H](CCCCNC(C)=O)NC(=O)[C@H](C)NC(=O)[C@H](CCCNC(=N)N)NC(=O)[C@@H](NC(=O)[C@H](CCCCN)NC(=O)[C@H](CCC(=O)O)NC(=O)[C@H](CCCNC(=N)N)NC(=O)CNC(=O)[C@H](CCC(=O)O)NC(=O)[C@H](CC(C)C)NC(C)=O)C(C)C)[C@@H](C)CC)[C@@H](C)O)C(N)=O)C(=O)O)C(=O)O)C(=O)O [compound 155] (Ac-LEGREKVRAK(Ac)I[Aib][Aib]EG[Nle]STWS[Aib]AAK(Ac)K([AEEA-AEEA-AEEA-γGlu-γGlu-γGlu-Stearoyl])-NH2) | – | 95 |
| CCCCCCCCCCCCCCCCCC(=O)N[C@@H](CCC(=O)N[C@@H](CCC(=O)N[C@@H](CCC(=O)NCCOCCOCC(=O)NCCOCCOCC(=O)NCCOCCOCC(=O)NCCCC[C@H](NC(=O)[C@H](CCCCNC(C)=O)NC(=O)[C@H](CCCCN)NC(=O)[C@H](CCCNC(=N)N)NC(=O)C(C)(C)NC(=O)[C@H](CO)NC(=O)[C@H](Cc1c[nH]c2ccc(O)cc12)NC(=O)[C@@H](NC(=O)[C@H](CO)NC(=O)[C@H](CCCC)NC(=O)CNC(=O)[C@H](CCC(=O)O)NC(=O)C(C)(C)NC(=O)C(C)(C)NC(=O)[C@@H](NC(=O)[C@H](CCCCNC(C)=O)NC(=O)[C@H](C)NC(=O)[C@H](CCCNC(=N)N)NC(=O)[C@@H](NC(=O)[C@H](CCCCN)NC(=O)[C@H](CCC(=O)O)NC(=O)[C@H](CCCNC(=N)N)NC(=O)CNC(=O)[C@H](CCC(=O)O)NC(=O)[C@H](CC(C)C)NC(C)=O)C(C)C)[C@@H](C)CC)[C@@H](C)O)C(N)=O)C(=O)O)C(=O)O)C(=O)O [compound 158] (Ac-LEGREKVRAK(Ac)I[Aib][Aib]EG[Nle]ST[Trp(5-OH)]S[Aib]RKK(Ac)K([AEEA-AEEA-AEEA-γGlu-γGlu-γGlu-Stearoyl])-NH2) | 0.14 | 90 |
| CCCCCCCCCCCCCCCC(=O)N[C@@H](CCC(=O)N[C@@H](CCC(=O)NCCCC[C@H](NC(=O)CC[C@H](NC(=O)CC[C@H](NC(=O)COCCOCCNC(=O)COCCOCCNC(=O)COCCOCCNC(=O)COCCOCCNC(=O)[C@H](CCCCNC(C)=O)NC(=O)[C@H](CCCCN)NC(=O)[C@H](CCCNC(=N)N)NC(=O)[C@](C)(CCCCN)NC(=O)[C@H](CO)NC(=O)[C@H](Cc1ccccc1)NC(=O)[C@@H](NC(=O)[C@H](CO)NC(=O)[C@H](CCCC)NC(=O)CNC(=O)[C@H](CCC(=O)O)NC(=O)C(C)(C)NC(=O)C(C)(C)NC(=O)[C@@H](NC(=O)[C@H](CCCCNC(C)=O)NC(=O)[C@H](C)NC(=O)[C@H](CCCNC(=N)N)NC(=O)[C@@H](NC(=O)[C@H](CCCCN)NC(=O)[C@H](CCC(=O)O)NC(=O)[C@H](CCCNC(=N)N)NC(=O)CNC(=O)[C@H](CCC(=O)O)NC(=O)[C@H](CC(C)C)NC(C)=O)C(C)C)[C@@H](C)CC)[C@@H](C)O)C(=O)O)C(=O)O)C(N)=O)C(=O)O)C(=O)O [compound 159] (Ac-LEGREKVRAK(Ac)I[Aib][Aib]EG[Nle]STFS[αMeK]RKK(Ac)[AEEA][AEEA][AEEA][AEEA][γGlu][γGlu]K([γGlu-γGlu-Palmitoyl])-NH2) | 0.02 | 88 |
| CCCCCCCCCCCC(=O)N[C@@H](CCC(=O)N[C@@H](CCC(=O)N[C@@H](CCC(=O)N[C@@H](CCC(=O)NCCCC[C@H](NC(=O)COCCOCCNC(=O)COCCOCCNC(=O)COCCOCCNC(=O)COCCOCCNC(=O)[C@H](CCCCNC(C)=O)NC(=O)[C@H](C)NC(=O)[C@H](CCCNC(=N)N)NC(=O)[C@](C)(CCCCN)NC(=O)[C@H](CO)NC(=O)[C@H](Cc1ccccc1)NC(=O)[C@@H](NC(=O)[C@H](CO)NC(=O)[C@H](CCC(N)=O)NC(=O)CNC(=O)[C@H](CCC(=O)O)NC(=O)C(C)(C)NC(=O)C(C)(C)NC(=O)[C@@H](NC(=O)[C@H](CCCCNC(C)=O)NC(=O)[C@H](C)NC(=O)[C@H](CCCNC(=N)N)NC(=O)[C@@H](NC(=O)[C@H](CCCCN)NC(=O)[C@H](CCC(=O)O)NC(=O)[C@H](CCCNC(=N)N)NC(=O)CNC(=O)[C@H](CCC(=O)O)NC(=O)[C@H](CC(C)C)NC(C)=O)C(C)C)[C@@H](C)CC)[C@@H](C)O)C(N)=O)C(=O)O)C(=O)O)C(=O)O)C(=O)O [compound 161] (Ac-LEGREKVRAK(Ac)I[Aib][Aib]EGQSTFS[αMeK]RAK(Ac)[AEEA][AEEA][AEEA][AEEA]K([γGlu-γGlu-γGlu-γGlu-Lauroyl])-NH2) | – | 94 |
| CCCCCCCCCCCCCCC(=O)N[C@@H](CCC(=O)N[C@@H](CCC(=O)N[C@@H](CCC(=O)NCCOCCOCC(=O)NCCOCCOCC(=O)NCCOCCOCC(=O)NCCCC[C@H](NC(=O)[C@H](CCCCNC(C)=O)NC(=O)[C@H](CCCCN)NC(=O)[C@H](CCCNC(=N)N)NC(=O)C(C)(C)NC(=O)[C@H](CO)NC(=O)[C@H](Cc1c[nH]c2ccccc12)NC(=O)[C@@H](NC(=O)[C@H](CO)NC(=O)[C@H](CCCC)NC(=O)CNC(=O)[C@H](CCC(=O)O)NC(=O)C(C)(C)NC(=O)C(C)(C)NC(=O)[C@@H](NC(=O)[C@H](CCCCNC(C)=O)NC(=O)[C@H](C)NC(=O)[C@H](CCCNC(=N)N)NC(=O)[C@@H](NC(=O)[C@H](CCCCN)NC(=O)[C@H](CCC(=O)O)NC(=O)[C@H](CCCNC(=N)N)NC(=O)CNC(=O)[C@H](CCC(=O)O)NC(=O)[C@H](CC(C)C)NC(C)=O)C(C)C)[C@@H](C)CC)[C@@H](C)O)C(N)=O)C(=O)O)C(=O)O)C(=O)O [compound 163] (Ac-LEGREKVRAK(Ac)I[Aib][Aib]EG[Nle]STWS[Aib]RKK(Ac)K([AEEA-AEEA-AEEA-γGlu-γGlu-γGlu-Pentadecanoyl])-NH2) | – | 87 |
| CCCCCCCCCCCCCCCCC(=O)N[C@@H](CCC(=O)N[C@@H](CCC(=O)N[C@@H](CCC(=O)NCCOCCOCC(=O)NCCOCCOCC(=O)NCCOCCOCC(=O)NCCCC[C@H](NC(=O)[C@H](CCCCNC(C)=O)NC(=O)[C@H](CCCCN)NC(=O)[C@H](CCCNC(=N)N)NC(=O)C(C)(C)NC(=O)[C@H](CO)NC(=O)[C@H](Cc1c[nH]c2ccccc12)NC(=O)[C@@H](NC(=O)[C@H](CO)NC(=O)[C@H](CCCC)NC(=O)CNC(=O)[C@H](CCC(=O)O)NC(=O)C(C)(C)NC(=O)C(C)(C)NC(=O)[C@@H](NC(=O)[C@H](CCCCNC(C)=O)NC(=O)[C@H](C)NC(=O)[C@H](CCCNC(=N)N)NC(=O)[C@@H](NC(=O)[C@H](CCCCN)NC(=O)[C@H](CCC(=O)O)NC(=O)[C@H](CCCNC(=N)N)NC(=O)CNC(=O)[C@H](CCC(=O)O)NC(=O)[C@H](CC(C)C)NC(C)=O)C(C)C)[C@@H](C)CC)[C@@H](C)O)C(N)=O)C(=O)O)C(=O)O)C(=O)O [compound 164] (Ac-LEGREKVRAK(Ac)I[Aib][Aib]EG[Nle]STWS[Aib]RKK(Ac)K([AEEA-AEEA-AEEA-γGlu-γGlu-γGlu-Heptadecanoyl])-NH2) | – | 93 |

Source: patent publication US10988523B2, “Modified lipidated Relaxin B chain peptides and their therapeutic use” (Sanofi, priority 2018, dated 2021)
